For 25 compounds, EC50 and IC50 results are on record in ChEMBL document CHEMBL6134910, “Discovery of a New Class of Orexin 2 Receptor Agonists as a Potential Treatment for Narcolepsy” (J Med Chem, 2025).

Sequence of Cytochrome P450 2C9 (P11712 whole entry): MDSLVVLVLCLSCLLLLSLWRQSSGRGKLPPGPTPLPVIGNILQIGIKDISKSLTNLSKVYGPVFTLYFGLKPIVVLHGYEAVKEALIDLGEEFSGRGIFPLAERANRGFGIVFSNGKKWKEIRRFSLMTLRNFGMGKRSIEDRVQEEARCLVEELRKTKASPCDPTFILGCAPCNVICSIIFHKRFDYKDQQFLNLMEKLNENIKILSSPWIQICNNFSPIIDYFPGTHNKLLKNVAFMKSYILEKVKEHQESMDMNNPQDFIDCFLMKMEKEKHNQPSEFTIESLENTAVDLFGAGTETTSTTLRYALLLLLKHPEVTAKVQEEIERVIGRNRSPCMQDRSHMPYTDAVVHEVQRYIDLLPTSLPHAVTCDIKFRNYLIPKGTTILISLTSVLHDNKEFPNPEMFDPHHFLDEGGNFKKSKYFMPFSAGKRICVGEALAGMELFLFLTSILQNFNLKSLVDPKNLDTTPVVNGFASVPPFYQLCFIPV
Sequence of Cytochrome P450 2D6 (P10635 whole entry): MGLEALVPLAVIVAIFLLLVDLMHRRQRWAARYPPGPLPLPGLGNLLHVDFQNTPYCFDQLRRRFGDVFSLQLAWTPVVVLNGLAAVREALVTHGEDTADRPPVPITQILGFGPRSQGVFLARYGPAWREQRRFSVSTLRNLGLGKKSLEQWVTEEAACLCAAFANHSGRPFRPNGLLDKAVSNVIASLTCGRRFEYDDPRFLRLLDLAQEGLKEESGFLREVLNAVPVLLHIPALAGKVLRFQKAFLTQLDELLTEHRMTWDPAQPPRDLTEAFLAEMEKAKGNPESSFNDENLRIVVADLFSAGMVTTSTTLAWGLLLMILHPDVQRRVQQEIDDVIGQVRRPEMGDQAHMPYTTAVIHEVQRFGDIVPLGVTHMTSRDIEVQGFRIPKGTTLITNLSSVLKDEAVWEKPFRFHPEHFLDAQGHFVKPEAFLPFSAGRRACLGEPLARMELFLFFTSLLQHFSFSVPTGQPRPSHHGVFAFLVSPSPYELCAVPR

For the first assay, the target named is T1, Orexin receptor type 2 (Homo sapiens, UniProt O43614).
T1 sequence (O43614 whole entry): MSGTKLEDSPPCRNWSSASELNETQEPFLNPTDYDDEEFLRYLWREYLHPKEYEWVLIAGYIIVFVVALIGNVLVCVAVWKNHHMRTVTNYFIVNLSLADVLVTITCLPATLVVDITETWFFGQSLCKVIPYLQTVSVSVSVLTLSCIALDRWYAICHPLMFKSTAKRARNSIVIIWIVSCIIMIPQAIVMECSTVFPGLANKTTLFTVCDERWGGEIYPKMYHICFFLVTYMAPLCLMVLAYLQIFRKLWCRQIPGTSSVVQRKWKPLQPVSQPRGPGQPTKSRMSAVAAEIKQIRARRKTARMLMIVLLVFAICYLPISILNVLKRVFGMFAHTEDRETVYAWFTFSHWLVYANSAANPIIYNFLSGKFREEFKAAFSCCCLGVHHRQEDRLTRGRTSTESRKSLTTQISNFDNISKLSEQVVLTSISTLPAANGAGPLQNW
The assay can be described thus: Agonist activity at human OX2 receptor expressed in HEK293 cells assessed as IP-1 accumulation incubated for […] by HTRF IP-one Gq detection assay. It is filed as functional, cell-based. (TR-FRET usually uses a lanthanide donor and a delayed reading to cut background.)
With `Cn1ncc(CC(=O)N(C2CCCC2)C(C(=O)NC23CC(C)(C2)C3)C2CCCC2)c1-c1ccccc1` (centres undefined), the half-maximal effective concentration (EC50) (commonly the concentration that produces a half-maximal response) was more than 20 µM.

In a further assay the target is Cytochrome P450 3A4 (Homo sapiens, UniProt P08684). The assay can be described thus: Inhibition of CYP3A4 in human liver microsome using testosterone as substrate incubated for 7 mins. It is filed as ADME, microsomes.
Sequence of Cytochrome P450 3A4 (P08684 whole entry): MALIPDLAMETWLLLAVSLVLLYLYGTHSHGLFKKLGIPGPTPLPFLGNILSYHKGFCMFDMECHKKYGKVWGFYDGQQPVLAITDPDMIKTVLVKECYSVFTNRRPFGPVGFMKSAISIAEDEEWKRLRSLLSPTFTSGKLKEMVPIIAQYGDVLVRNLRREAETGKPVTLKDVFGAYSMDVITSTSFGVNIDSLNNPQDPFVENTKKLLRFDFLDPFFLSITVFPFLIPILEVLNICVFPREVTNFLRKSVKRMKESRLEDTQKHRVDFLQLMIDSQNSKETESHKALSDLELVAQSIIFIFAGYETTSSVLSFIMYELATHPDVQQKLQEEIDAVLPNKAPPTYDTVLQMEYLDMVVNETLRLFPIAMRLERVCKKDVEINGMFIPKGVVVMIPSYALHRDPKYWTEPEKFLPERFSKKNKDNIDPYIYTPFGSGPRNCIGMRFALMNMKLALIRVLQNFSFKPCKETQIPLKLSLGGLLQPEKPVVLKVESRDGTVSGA
For `CC12CC(NC(=O)[C@@H](c3ccccc3)N(C(=O)Cc3cnnn3-c3ccccc3)C3CCCC3)(C1)C2`, the IC50 (in general, the concentration that inhibits the measured activity by half) was determined as 1.6 µM. In other words, the single-digit micromolar range.
`Cn1ncc(CC(=O)N(C2CCCC2)C(C(=O)NC23CC(C)(C2)C3)c2ccccc2)c1-c1c(F)cccc1F` (centres undefined) had a concentration for half-maximal inhibition (IC50) of 7 µM.
As for `Cn1ncc(CC(=O)N(C2CCCC2)[C@@H](C(=O)NC23CC(C)(C2)C3)c2ccccc2)c1-n1nccn1`, half-maximal inhibition (IC50) was put at 4 µM.
On the same count and under the same terms, with `Cn1ncc(CC(=O)N(C2CCCC2)C(C(=O)NC23CC(C)(C2)C3)c2ccccc2)c1-c1ncccn1` (centres undefined) the figure was 6.8 µM; with `Cc1nsc(CC(=O)N(C2CCCC2)[C@@H](C(=O)NC23CC(C)(C2)C3)c2ccccc2)c1-c1ccccc1`, 1.4 µM.
`Cn1ncc(CC(=O)N(C2CCCC2)[C@@H](C(=O)NC23CC(C)(C2)C3)c2ccccc2)c1-c1cccnc1`: the IC50 came to 7.6 µM.
`Cn1ncc(CC(=O)N(C2CCCC2)C(C(=O)NC23CC(C)(C2)C3)c2ccccc2)c1-c1coc(C2CC2)n1` (centres undefined): 4.2 µM corresponded to half-maximal inhibition (IC50).
As to `Cn1nnc(-c2c(CC(=O)N(C3CCCC3)C(C(=O)NC34CC(C)(C3)C4)c3ccccc3)cnn2C)n1` (centres undefined), the 50% inhibitory concentration (IC50) was 12 µM.
For the compound `CC(C)N(C(=O)Cc1cnn(C)c1-c1ccccc1)[C@@H](c1cn(C23CC(C)(C2)C3)nn1)c1cc(F)ccc1F`, the IC50 is 1 µM.
`O=C(NC1CCCCC1)[C@@H](c1ccccc1)N(C[C@H]1CCCO1)C(=O)Cn1cncc1-c1ccccc1`: half-maximal inhibition (IC50) was put at 0.25 µM.
The compound `CC12CC(NC(=O)[C@@H](c3ccccc3)N(C(=O)Cc3cnn(C(F)F)c3-c3ccccc3)C3CCCC3)(C1)C2` came in with an IC50 of 2 µM. Against the preceding compound, the IC50 is about 8-fold higher.
Consider `CC12CC(NC(=O)[C@@H](c3ccccc3)N(C(=O)Cn3cnc(Cl)c3-c3ccccc3)C3CCCC3)(C1)C2`, for which the half-inhibitory concentration (IC50) is 18 µM.
`CC(C)N(C(=O)Cc1cnn(C)c1-c1ccccc1)[C@@H](C(=O)NC12CC(C)(C1)C2)c1cc(F)ccc1F` showed a half-maximal inhibitory concentration (IC50) of 0.3 µM.
Same read-out and setting: with `Cc1ncn(CC(=O)N(C2CCCC2)[C@@H](C(=O)NC23CC(C)(C2)C3)c2ccccc2)c1-c1ccccc1` the figure was 7.3 µM; with `COc1cccc(-c2c(CC(=O)N(C3CCCC3)C(C(=O)NC34CC(C)(C3)C4)c3ccccc3)cnn2C)c1F` (centres undefined), 0.9 µM; with `COc1cccc(-c2c(CC(=O)N(C3CCCC3)C(C(=O)NC34CC(C)(C3)C4)c3ccccc3)cnn2C)c1` (centres undefined), 1.5 µM.
`Cn1ncc(CC(=O)N(C2CCCC2)[C@@H](C(=O)NC23CC(C)(C2)C3)c2ccccc2)c1-c1ccccc1`: the IC50 was 5 µM.
In turn, `O=C(NC1CCCCC1)[C@@H](c1ccccc1)N(C[C@H]1CCCO1)C(=O)Cn1cnc2ccccc21` registered an IC50 of 10 µM.
Compound `Cn1ccc(-c2c(CC(=O)N(C3CCCC3)C(C(=O)NC34CC(C)(C3)C4)c3ccccc3)cnn2C)n1` (centres undefined) yielded an IC50 of 2.5 µM.
The same measure, in the same setting: the figure for `CC12CC(NC(=O)[C@@H](c3ccccc3)N(C(=O)Cc3cnoc3-c3ccccc3)C3CCCC3)(C1)C2` is 1.9 µM.
`Cn1ncc(CC(=O)N(C2CCCC2)C(C(=O)NC23CC(C)(C2)C3)c2ccccc2)c1-c1ccc(F)cc1F` (centres undefined) returned a half-maximal inhibitory concentration (IC50) of 1.6 µM. The IC50 values of the last two compounds are within 1.5-fold of each other.
Regarding `Cc1ncn(CC(=O)N(C[C@H]2CCCO2)[C@@H](C(=O)NC2CCCCC2)c2ccccc2)c1-c1ccccc1`, 7.3 µM corresponded to half-maximal inhibition (IC50). Against the preceding compound, the IC50 is about 4.6-fold higher.

For the next assay, the target named is T2, Orexin/Hypocretin receptor type 1 (Homo sapiens, UniProt O43613).
T2 sequence (O43613 whole entry): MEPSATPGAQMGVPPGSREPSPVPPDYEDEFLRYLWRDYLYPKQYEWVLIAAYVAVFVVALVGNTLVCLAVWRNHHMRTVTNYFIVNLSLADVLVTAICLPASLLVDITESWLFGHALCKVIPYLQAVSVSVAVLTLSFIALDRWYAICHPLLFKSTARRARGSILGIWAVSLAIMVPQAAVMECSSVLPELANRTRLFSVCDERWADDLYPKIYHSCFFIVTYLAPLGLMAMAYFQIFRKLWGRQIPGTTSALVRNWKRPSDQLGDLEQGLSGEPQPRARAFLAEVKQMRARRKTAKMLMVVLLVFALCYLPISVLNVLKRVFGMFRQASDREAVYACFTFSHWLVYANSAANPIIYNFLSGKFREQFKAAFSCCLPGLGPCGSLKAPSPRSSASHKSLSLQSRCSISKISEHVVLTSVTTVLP
The assay can be described thus: Agonist activity at human OX1 receptor expressed in HEK293 cells assessed as IP-1 accumulation incubated for […] by HTRF IP-one Gq detection assay. It is filed as functional, cell-based.
Regarding `Cn1nnc(-c2oncc2CC(=O)N(C2CC3(CC3)C2)[C@@H](C(=O)NC23CC(C)(C2)C3)c2cc(F)ccc2F)n1`, the concentration giving a half-maximal response (EC50) is more than 20 µM.
For `Cn1nnc(-c2c(CC(=O)N(C3CC4(CC4)C3)[C@@H](C(=O)NC34CC(C)(C3)C4)c3ccccc3Cl)cnn2C)n1`, the concentration for a half-maximal effect (EC50) was more than 20 µM.

The next assay has as its target Cytochrome P450 2D6 (Homo sapiens, UniProt P10635). The assay can be described thus: Inhibition of CYP2D6 in human liver microsome using dextrometorphan as substrate incubated for 30 mins by LC-MS/MS analysis. It is filed as ADME, microsomes. On the technique in general: Liver microsomes are a subcellular fraction often used to study metabolism.
Regarding `Cn1nnc(-c2oncc2CC(=O)N(C2CC3(CC3)C2)[C@@H](C(=O)NC23CC(C)(C2)C3)c2cc(F)ccc2F)n1`, the 50% inhibitory concentration (IC50) worked out at 20 µM.
On the same count and under the same terms, the figure for `Cn1nnc(-c2c(CC(=O)N(C3CC4(CC4)C3)[C@@H](C(=O)NC34CC(C)(C3)C4)c3ccccc3Cl)cnn2C)n1` is 5.3 µM.

A further assay addresses Cytochrome P450 2C9 (Homo sapiens, UniProt P11712). The assay can be described thus: Inhibition of CYP2C9 in human liver microsome using diclofenac as substrate incubated for 6 mins by LC-MS/MS analysis. It is filed as ADME, microsomes.
The compound `Cn1nnc(-c2oncc2CC(=O)N(C2CC3(CC3)C2)[C@@H](C(=O)NC23CC(C)(C2)C3)c2cc(F)ccc2F)n1` displayed a half-inhibitory concentration (IC50) of 24 µM.
Compound `Cn1nnc(-c2c(CC(=O)N(C3CC4(CC4)C3)[C@@H](C(=O)NC34CC(C)(C3)C4)c3ccccc3Cl)cnn2C)n1` showed a concentration for half-maximal inhibition (IC50) of 20 µM.
